# Results taken from patent EP3034496A1, “NOVEL SOLVATES OF N-[2-[(1S)-1-(3-ETHOXY-4-METHOXYPHENYL)-2-(METHYLSULFONYL)ETHYL]-2,3-DIHYDRO-1,3-DIOXO-1H-ISOINDOL-4-YL]ACETAMIDE” (LEK Pharmaceuticals d.d., priority 2014, dated 2016).
# Read-outs that look alike come from different tables or passages of the source.
# How the values were obtained:
# [1] = 90th percentile of the particle size distribution as measured by length, from WO 2009/120167 A1, cited from earlier work
# [2] = cited from earlier work; for solubility in H2O: value of the organic solvent incorporated into the crystal structure, not of the crystal form
# [3] = gravimetric moisture sorption desorption isotherm; format: physicochemical; settings: 0 to 95% relative humidity, (25.0 ± 0.1) °C
# Method: Gravimetric moisture sorption desorption isotherm was acquired using a SPS-11 moisture sorption analyzer (MD Messtechnik, Ulm, D). The sample was weighed into an Aluminium sample holder. […] The water content of the samples was determined after the moisture sorption/ desorption experiments with a TGA 7 system (Perkin Elmer, Norwalk, Ct., USA) using the Pyris 2.0 software according to the above described method.
compound,measurement,setting,value
"CCOc1cc([C@@H](CS(C)(=O)=O)N2C(=O)c3cccc(NC(C)=O)c3C2=O)ccc1OC [Form C, N-[2-[(1S)-1-(3-ethoxy-4-methoxyphenyl)-2-(methylsulfonyl)ethyl]-2,3-dihydro-1,3-dioxo-1H-isoindol-4-yl]acetamide]",D90,[1]; listed as C,< 12 microm
ClCCl [methylene chloride],solubility in H2O,[2],1.6 %w/w
CCOC(C)=O [ethyl acetate],aqueous solubility / water solubility,[2]; organic solvent,8.7 % w/w
same,solubility in H2O,[2],8.7 %w/w
"CCOc1cc([C@@H](CS(C)(=O)=O)N2C(=O)c3cccc(NC(C)=O)c3C2=O)ccc1OC [Form G, N-[2-[(1S)-1-(3-ethoxy-4-methoxyphenyl)-2-(methylsulfonyl)ethyl]-2,3-dihydro-1,3-dioxo-1H-isoindol-4-yl]acetamide]",D90,[1]; listed as G,< 18 microm
CC#N [acetonitrile],solubility in H2O,[2],100 %w/w
"CCOc1cc([C@@H](CS(C)(=O)=O)N2C(=O)c3cccc(NC(C)=O)c3C2=O)ccc1OC [Form E, N-[2-[(1S)-1-(3-ethoxy-4-methoxyphenyl)-2-(methylsulfonyl)ethyl]-2,3-dihydro-1,3-dioxo-1H-isoindol-4-yl]acetamide]",D90,[1]; listed as E,< 18 microm
"CCOc1cc([C@@H](CS(C)(=O)=O)N2C(=O)c3cccc(NC(C)=O)c3C2=O)ccc1OC [Form D, N-[2-[(1S)-1-(3-ethoxy-4-methoxyphenyl)-2-(methylsulfonyl)ethyl]-2,3-dihydro-1,3-dioxo-1H-isoindol-4-yl]acetamide]",D90,[1]; listed as D,< 18 microm
"N-[2-[(1S)-1-(3-ethoxy-4-methoxyphenyl)-2-(methylsulfonyl)ethyl]-2,3-dihydro-1,3-dioxo-1H-isoindol-4-yl]acetamide ethanol solvate",hygroscopicity,[3],non-hygroscopic (compounds showing a mass change of less than 2 weight% based on the weight of the compound in the range of from 0 to 95% relative humidity at (25.0 ± 0.1) °C)
same,mass change,[3]; based on the weight of the crystalline ethanol solvate,less than 0.5 % w/w
CC(C)=O [acetone],solubility in water (in words),[2]; organic solvent,freely soluble in water
same,solubility in H2O,[2],100 %w/w
CCO [ethanol],solubility in water (in words),[2]; organic solvent,freely soluble in water
same,solubility in H2O,[2],100 %w/w
